In assay [1] the test system is hNT neurons. Kind of assay: Soma size and neurite outgrowth of TH+ hNT cells (image analysis). The assay is classed as cell-based, human. The conditions noted are these: 5 days in culture. The procedure: The same series of slides immunostained for TH were employed to measure the soma size (μm^2) and neurite outgrowth (μm) of appropriately 50 TH+ cells per representative culture experiment using a computerized image analysis program (Image-Pro Plus, Media Cybernetics, Inc., Silver Springs, Md.) at 20X objective. The results in the morphological assessment study are reported as mean ±SEM and were analyzed using Student's t-test.

Assay [2] relates to hNT neurons. Kind of assay: TH expression of hNT neurons treated with lithium chloride (TH immunoreactivity counts). The assay is classed as cell-based, human. To be noted: 1.0 mM, 5-day cultures. The method, then:
A small-scale dose range study analyzed whether therapeutic (0.5-1.0 mM) and clinically toxic (2.0-6.0 mM) concentrations of LiCl enhanced TH expression in cells treated for 6 weeks with retinoic acid and then LiCl. The control and lithium-treated cultures (0.5, 1.0 and 3.0 mM) were scored for TH immunoreactivity, which was expressed as the number of TH-positive (TH+) cells/well. For TH immunohistochemistry the cells were rinsed in 0.1 M phosphate buffered saline (PBS), fixed in 4% paraformaldehyde, and then again rinsed in PBS. […] To determine the percentage of cells labeled by a particular antibody in representative experiments, the numbers of labeled and unlabeled cells were assessed in a blind-coded manner using a 20X objective and a photographic frame. […]
To investigate the effect of various doses of LiCl on tyrosine hydroxylase expression in 5 DIV hNT neurons, we determined the number of unlabeled and TH+ neurons in a blind coded manner using a 20X objective and a photographic frame (field=0.3 mm^2). […] The dose responsive tests were analyzed using a one-way analysis of variance (ANOVA) followed by post hoc comparisons using Bonferroni-Dunn analysis.

The results in this text go back to patent US20020192194A1, “Production and use of dopaminergic cells to treat dopaminergic deficiencies” (priority 2000, published 2002).

The structures appear in SMILES notation.

As for `[Cl-].[Na+]` [NaCl], in the assay with hNT neurons [1], the “neurite outgrowth vs control” value was “did not significantly differ from control values” and the “soma size vs control” value is “not significantly different from control”. Further, the “numbers of TH+ hNT cells vs control” value in the assay with hNT neurons [2] is “not significantly different”.

Take `[Cl-].[K+]` [KCl]: in the assay on hNT neurons [1], the “neurite outgrowth vs control” value was “did not significantly differ from control values” and the “soma size vs control” value is on record as “not significantly different from control”. The “numbers of TH+ hNT cells vs control” value in the assay with hNT neurons [2] is given as “not significantly different”.
